# Tests used:
# [1] = system: hM2-5; assay: Muscarinic selectivity, human M2-5; format: cell-based
# Experimental: Procedures for Biological Experiments
# Calcium mobilization assays:
# All functional cell-based assays were performed in stable Chinese Hamster Ovary (CHO) cell lines constitutively expressing human M5 or human M1 receptors. For full muscarinic selectivity, CHO cells expressing human M3, human M2 plus Gqi5 or human M4 plus Gqi5 were used. Cells were plated at 15,000 cells per 20 µL per well in black 384-well, TC-treated, clear-bottomed plates (Greiner) in Ham’s F12 medium supplemented with 10% FBS and 20 mM HEPES. Cells were incubated overnight at 37 °C under 5% CO2. The following day, the medium was removed and replaced with 1.2 µM Fluo-4 AM (Invitrogen) in assay buffer (Hank’s Balanced Salt Solution supplemented with 20 mM HEPES and 2.5 mM Probenecid, pH 7.4) and the cells were incubated for 50 minutes at 37 °C under 5% CO2. Dye was then removed and replaced with 20 µL of fresh assay buffer. Test compounds at a 10 mM concentration in DMSO were serially diluted in DMSO (either 1:3 or 1:5 dilution) to create a 10-point concentration series. The DMSO solutions were then diluted in assay buffer resulting in compound solutions at 2-times the final assay concentration with the highest assay concentration of 30 µM. The compound plate, cell plate, and plates containing EC20 and EC80 acetylcholine concentrations were placed in a Hamamatsu FDSS 6000 or 7000 kinetic imaging plate reader equipped to measure Ex480/Em540 fluorescence. Data were collected at 1 frame per second. After 2 seconds of collecting baseline fluorescence, 20 µL of the compound solutions were added to the cell plate. This was followed by the addition of an EC20 concentration of acetylcholine at 142 seconds. […] The fluorescence signal was collected for a total of 300 seconds. […] Data were imported and analyzed in Dotmatics Informatics software. by normalizing all data in the individual kinetic traces to the initial fluorescence read. The magnitude of each agonist addition was then determined and normalized to the average maximum response. […] The IC50 determined using the EC80 of acetylcholine is the value reported. […]
# [2] = system: rM2-5; assay: Muscarinic selectivity, rat M2-5; format: cell-based
# [3] = Plasma protein binding, human; format: in vitro ADME; conditions: pH 7.4, read-out: fu,plasma human
# Experimental: Plasma protein binding and Brain homogenate binding: Determination of fraction unbound (f u) in plasma was conducted in vitro via equilibrium dialysis using HTDialysis (HTD) membrane plates. The top half of the plate was filled with 100 uL of Dubelco’s Phosphate Buffered Saline, pH 7.4 (DPBS). Compounds were diluted into plasma from each species (5 µM final concentration), which was aliquoted in triplicate to the ‘bottom half’ of the prepared HTD plate wells. The HTD plate was sealed and incubated for 6 hours at 37 °C. Following incubation, each well (both top and bottom halves) were transferred (20 µL) to the corresponding wells of a 96-shallow-well (V-bottom) plate. The daughter plates were then matrix-matched (DPBS side wells received equal volume of plasma, and plasma side wells received equal volume of DPBS), and extraction solution (120 µL; acetonitrile containing 50 nM carbamazepine as IS) was added to all wells of both daughter plates to precipitate protein and extract test article. The plates were then sealed and centrifuged (3500 rcf) for 10 minutes at ambient temperature. Supernatant (60 µL) from each well of the daughter plates was then transferred to the corresponding wells of new daughter plates (96-shallow-well, V bottom) containing water (Milli-Q, 60 µL/well), and the plates were sealed in preparation for LC-MS/MS analysis (see LC-MS/MS analysis method below).
# The unbound fraction (f u) was calculated following the equation below, and mean values for each species were calculated from 3 replicates. […]
# Fraction unbound for both plasma and brain samples was determined using Equation 4.
# Equation 4 Determination of fraction unbound in plasma.
# [4] = target: CYP2C9 (Homo sapiens, UniProt P11712); assay: CYP inhibition, 2C9; format: in vitro ADME
# Sequence of CYP2C9 (P11712 whole entry): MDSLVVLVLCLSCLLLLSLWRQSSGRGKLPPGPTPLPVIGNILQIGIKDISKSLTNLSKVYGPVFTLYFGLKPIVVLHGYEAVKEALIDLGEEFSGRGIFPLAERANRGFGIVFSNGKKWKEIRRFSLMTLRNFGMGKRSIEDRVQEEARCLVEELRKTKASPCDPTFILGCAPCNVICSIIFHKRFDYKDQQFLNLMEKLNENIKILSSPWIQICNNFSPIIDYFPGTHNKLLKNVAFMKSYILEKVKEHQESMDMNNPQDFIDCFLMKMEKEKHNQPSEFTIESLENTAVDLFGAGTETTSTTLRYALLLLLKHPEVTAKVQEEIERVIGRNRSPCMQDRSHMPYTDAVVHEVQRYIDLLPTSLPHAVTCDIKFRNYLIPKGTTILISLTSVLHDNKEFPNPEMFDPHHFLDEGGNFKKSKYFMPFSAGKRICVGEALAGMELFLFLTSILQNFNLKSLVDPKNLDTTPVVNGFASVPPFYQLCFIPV
# [5] = target: CYP2D6 (Homo sapiens, UniProt P10635); assay: CYP inhibition, 2D6; format: in vitro ADME
# Sequence of CYP2D6 (P10635 whole entry): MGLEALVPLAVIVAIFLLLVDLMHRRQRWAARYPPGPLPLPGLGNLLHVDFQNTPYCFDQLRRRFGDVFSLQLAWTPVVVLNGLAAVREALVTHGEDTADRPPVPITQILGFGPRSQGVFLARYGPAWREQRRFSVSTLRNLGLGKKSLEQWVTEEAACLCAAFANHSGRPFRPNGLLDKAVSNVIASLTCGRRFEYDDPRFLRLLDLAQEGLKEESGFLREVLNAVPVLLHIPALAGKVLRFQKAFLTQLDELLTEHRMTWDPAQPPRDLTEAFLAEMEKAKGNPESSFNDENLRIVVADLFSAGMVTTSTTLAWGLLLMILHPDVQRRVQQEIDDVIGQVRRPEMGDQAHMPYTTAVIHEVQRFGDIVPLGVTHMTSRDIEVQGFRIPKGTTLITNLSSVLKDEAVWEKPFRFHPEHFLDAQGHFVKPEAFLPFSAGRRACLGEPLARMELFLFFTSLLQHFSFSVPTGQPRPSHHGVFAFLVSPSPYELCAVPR
# [6] = target: CYP3A4 (Homo sapiens, UniProt P08684); assay: CYP inhibition, 3A4; format: in vitro ADME
# Sequence of CYP3A4 (P08684 whole entry): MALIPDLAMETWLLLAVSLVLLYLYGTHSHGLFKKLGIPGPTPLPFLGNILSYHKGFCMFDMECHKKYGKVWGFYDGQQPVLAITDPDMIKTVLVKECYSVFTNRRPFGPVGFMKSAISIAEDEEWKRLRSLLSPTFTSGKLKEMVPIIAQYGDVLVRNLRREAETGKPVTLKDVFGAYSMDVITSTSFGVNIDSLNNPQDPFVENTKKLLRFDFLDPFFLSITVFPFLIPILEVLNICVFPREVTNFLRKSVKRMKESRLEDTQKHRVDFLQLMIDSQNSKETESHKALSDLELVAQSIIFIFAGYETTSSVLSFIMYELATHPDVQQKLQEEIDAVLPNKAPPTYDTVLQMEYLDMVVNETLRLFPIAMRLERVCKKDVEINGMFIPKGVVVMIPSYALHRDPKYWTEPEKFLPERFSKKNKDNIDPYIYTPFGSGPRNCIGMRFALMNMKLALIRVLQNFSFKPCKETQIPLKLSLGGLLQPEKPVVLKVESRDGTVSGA
# [7] = system: T1, P-gp; assay: MDCK-MDR1 P-gp efflux and permeability; format: in vitro ADME; set-up: efflux ratio at 2 h / Papp at 2 h: dose or concentration left out as unconfirmed; conditions: for P-gp ER / efflux ratio at 2 h: MDCK-MDR1 efflux ratio; for Papp at 2 h / efflux ratio at 2 h: dog; for Papp at 2 h: MDCK-MDR1; for efflux ratio at 2 h: read-out: P-gp ER
# T1 construct: host or cells: MDR1-MDCK cell monolayers
# Experimental: In-vitro determination of blood-brain barrier penetration potential
# Blood-brain barrier penetration was determined using MDR1-MDCK cell monolayers by Absorption Systems, following their protocol. In short, compounds were incubated […] final […]
# concentration on one side of the cell monolayer for 2 hours. Compounds concentration on either side of the monolayer was determined by LC-MS/MS and apparent permeability and efflux ratio
Compound,EC50 [1] [µM],EC50 [2] [µM],"fraction unbound at 6 h, 5 µM [3]",IC50 [4] [µM],IC50 [5] [µM],IC50 [6] [µM],P-gp ER [7],Papp at 2 h [7] [×10⁻⁶ cm/s],efflux ratio at 2 h [7],activity on human M2–5 [1],activity on rat M2–5 [2]
Cn1ccc(-c2ccc(Cc3cc(C(=O)NC4CCOCC4)nc4ccsc34)cc2)n1 [compound 12],> 30,> 30,0.005,16.6,> 30,> 30,0.8,26.8,0.8,,
Cn1ccc2nc(C(=O)NC3CCOCC3)cc(Cc3ccc(-c4cc[nH]n4)cc3)c21 [compound 24],,,0.047,> 30,> 30,5.7,,2,31.9,inactive,inactive
Cn1ccc(-c2ccc(Cc3cc(C(=O)NC4CCOCC4)nc4ccn(C)c34)cc2)n1 [compound 11],> 30,> 30,0.016,28.5,> 30,> 30,3.5,12.8,3.5,,

# From article PMC11413853, “Discovery of VU6007496: Challenges in the Development of an M1 Positive Allosteric Modulator Backup Candidate” (ACS Chemical Neuroscience, 2024)
